Results: article PMC10535292, “Quinoline- and Isoindoline-Integrated Polycyclic Compounds as Antioxidant, and Antidiabetic Agents Targeting the Dual Inhibition of α-Glycosidase and α-Amylase Enzymes” (Pharmaceuticals, 2023)
Read-outs that look alike come from different tables or passages of the source.

Tests used:
[1] = ABTS cation radical scavenging assay; settings: mean ± SE, triplicate; read-out: EC50 Radical Scavenging Activities ABTS
Method: (§1) The ability of the samples to scavenge free radicals was evaluated using a range of in vitro tests, including DPPH, ABTS, and superoxide anion radicals, with BHA utilized as a positive control.
(§2) The DPPH free radical, ABTS cation radical, and superoxide anion radical scavenging approaches were used in the antioxidant activity of the present study. The capacity for the radical scavenging was represented by EC50 values. […] Every sample was observed three times. Butylated hydroxyanisole (BHA) is the positive control drug in this evaluation of antioxidant activity.

[2] = DPPH free radical scavenging assay; settings: mean ± SE, triplicate; read-out: EC50 Radical Scavenging Activities DPPH
Method: as §1, §2

yeast α-glycosidase [3] = target: T1, yeast α-glycosidase (Saccharomyces cerevisiae, UniProt P38158); assay: biochemical
T1 sequence (P38158 whole entry): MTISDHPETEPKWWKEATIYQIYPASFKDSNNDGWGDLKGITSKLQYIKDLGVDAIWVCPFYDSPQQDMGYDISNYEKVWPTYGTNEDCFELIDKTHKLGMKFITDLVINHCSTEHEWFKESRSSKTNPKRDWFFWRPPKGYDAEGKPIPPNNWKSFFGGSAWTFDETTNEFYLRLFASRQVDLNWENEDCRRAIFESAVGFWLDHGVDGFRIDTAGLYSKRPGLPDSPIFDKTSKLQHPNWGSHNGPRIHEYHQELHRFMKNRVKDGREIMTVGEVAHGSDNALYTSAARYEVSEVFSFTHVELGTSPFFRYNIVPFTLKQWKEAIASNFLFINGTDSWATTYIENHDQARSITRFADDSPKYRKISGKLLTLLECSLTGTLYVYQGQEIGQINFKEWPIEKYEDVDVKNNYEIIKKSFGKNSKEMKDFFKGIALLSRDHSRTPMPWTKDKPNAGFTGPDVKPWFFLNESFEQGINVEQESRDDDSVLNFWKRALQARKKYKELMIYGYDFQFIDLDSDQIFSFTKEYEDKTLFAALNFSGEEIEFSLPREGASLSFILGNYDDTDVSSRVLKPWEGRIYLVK
Text: (§3) Inhibitory activity of α-amylase and α-glycosidase was expressed as percent inhibition, calculated using the following formula. Inhibition (%) = (A control − A sample)/A control × 100
(§4) The IC50 values were obtained from a graph that correlated the percentage of the inhibition of each sample with its concentration. Each experiment included three replicates, along with appropriate blanks.

[4] = target: T2, type-VI B porcine pancreatic α-amylase (Sus scrofa, UniProt P00690); assay: α-Amylase inhibition with soluble starch (1%); type: biochemical; settings: mean ± SE, triplicate
T2 construct: type-VI B porcine pancreatic α-amylase; from tissue; host or cells: porcine pancreas (preparation grade 'type-VI B')
T2 sequence (P00690 16-511): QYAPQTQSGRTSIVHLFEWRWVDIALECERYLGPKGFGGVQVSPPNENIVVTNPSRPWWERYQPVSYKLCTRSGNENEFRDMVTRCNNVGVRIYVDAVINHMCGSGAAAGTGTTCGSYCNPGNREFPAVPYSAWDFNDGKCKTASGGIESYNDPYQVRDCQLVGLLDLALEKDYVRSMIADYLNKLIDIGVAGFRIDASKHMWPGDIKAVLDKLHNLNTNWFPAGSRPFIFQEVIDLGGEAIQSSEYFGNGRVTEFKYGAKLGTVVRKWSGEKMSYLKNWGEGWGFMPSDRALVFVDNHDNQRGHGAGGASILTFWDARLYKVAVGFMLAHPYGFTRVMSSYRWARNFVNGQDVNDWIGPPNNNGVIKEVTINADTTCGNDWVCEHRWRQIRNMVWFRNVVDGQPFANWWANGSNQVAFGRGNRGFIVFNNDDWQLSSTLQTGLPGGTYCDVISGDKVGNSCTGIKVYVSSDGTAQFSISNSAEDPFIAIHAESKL
Method: Moreover, similar tests were carried out to reveal if the synthesized molecules inhibited α-amylase, another important carbohydrate-hydrolyzing enzyme.
as §3, §4

[5] = Superoxide anion radical scavenging assay; settings: mean ± SE, triplicate; read-out: EC50 Radical Scavenging Activities Superoxide Anion Radicals
Method: as §1, §2

yeast α-glycosidase [6] = target: T1, yeast α-glycosidase; assay: Kinetic analysis of α-glycosidase inhibition (Lineweaver–Burk, Dixon plots); type: biochemical
Method: (§5) For the kinetic studies, α-glycosidase and α-amylase were incubated with designated concentrations of the substrate pNPG and starch, respectively, in the absence (control) or presence of IC20-, IC40-, and IC60-inhibitory concentrations of 7d. The mode of inhibition, [Km], and [Vmax] values were determined by graphical means using Lineweaver–Burk plots. […] The kinetic results established that the maximum velocity (Vmax) of the 7d reaction (with increasing concentrations) remained constant and was catalyzed by α-glycosidase and α-amylase (Table 3).
(§6) The enzyme kinetics of the compounds’ inhibition of the glycosidase activity were examined using different concentrations of the substrate against the IC20, IC40, and IC60 inhibitory concentrations of the compounds, as previously reported. The type of inhibition, Km, and Vmax were calculated using a double-reciprocal plot of the substrate concentration and velocity (1/V against 1/[pNPG]). The inhibitory constant (Ki) was also determined using the Dixon plot.

α-amylase = target: T3, α-amylase (Sus scrofa, UniProt P00690); assay: Kinetic analysis of α-amylase inhibition (Lineweaver–Burk, Dixon plots); type: biochemical, porcine
T3 construct: type-VI B porcine pancreatic α-amylase; from tissue; host or cells: porcine pancreas (preparation grade 'type-VI B')
T3 sequence (P00690 16-511): T2 sequence (P00690 16-511)
Method: as §5, §6

| Structure (SMILES) | EC50 [1] | melting point | EC50 [2] | IC50 (yeast α-glycosidase [3]) | IC50 [4] | EC50 [5] | also measured |
| --- | --- | --- | --- | --- | --- | --- | --- |
| N#Cc1c(-c2ccc(Cl)cc2)nn(C(=O)COc2cccc3cccnc23)c1N [compound 4b, 5-Amino-3-(4-chlorophenyl)-1-(2-(quinolin-8-yloxy)acetyl)-1H-pyrazole-4-carbonitrile] | 4750 ± 420 µM | 163 to 165 °C | 5000 ± 250 µM | 990 ± 330 µM | 1550 ± 1670 µM | 4500 ± 2000 µM | – |
| N#Cc1c(-c2ccccc2O)cc(N2C(=O)c3ccccc3C2=O)[nH]c1=O [8c, 6-(1,3-Dioxoisoindolin-2-yl)-4-(2-hydroxyphenyl)-2-oxo-1,2-dihydropyridine-3-carbonitrile] | 2440 ± 670 µM | 205 to 207 °C | 2500 ± 1110 µM | 1800 ± 720 µM | 3550 ± 1550 µM | 5150 ± 770 µM | – |
| N#Cc1c(-c2ccccc2)cc(N2C(=O)c3ccccc3C2=O)[nH]c1=O [compound 8a, 6-(1,3-Dioxoisoindolin-2-yl)-2-oxo-4-phenyl-1,2-dihydropyridine-3-carbonitrile] | 10000 ± 1170 µM | 216 to 218 °C | 3250 ± 1230 µM | 1000 µM | 880 ± 360 µM | 5780 ± 3010 µM | – |
| N#Cc1c(-c2ccc([N+](=O)[O-])cc2)cc(N2C(=O)c3ccccc3C2=O)[nH]c1=O [8b, 6-(1,3-Dioxoisoindolin-2-yl)-4-(4-nitrophenyl)-2-oxo-1,2-dihydropyridine-3-carbonitrile] | 9880 ± 2250 µM | 221 to 223 °C | 4500 ± 790 µM | 1010 ± 40 µM | 1600 ± 830 µM | 6000 ± 2450 µM | – |
| N#Cc1c(-c2ccc(Cl)c(Cl)c2O)cc(N2C(=O)c3ccccc3C2=O)nc1N [compound 7d, 2-Amino-4-(3,4-dichloro-2-hydroxyphenyl)-6-(1,3-dioxoisoindolin-2-yl)nicotinonitrile] | 520 ± 250 µM | – | 650 ± 30 µM | 70 ± 100 µM | 210 ± 60 µM | 930 ± 120 µM | IC20 (yeast α-glycosidase [6]): 30 µM; Ki (dissociation constant) (yeast α-glycosidase [6]; α-glycosidase, Dixon plot, mean ± SE): 0.47 mg; Mode of Inhibition (yeast α-glycosidase [6]; α-glycosidase, Lineweaver–Burk plot): competitive inhibition; 1/Vmax (reciprocal maximum velocity) (yeast α-glycosidase [6]; α-glycosidase, treatment IC20 0.03 μg): 28.82 10^3 (µM/min)^−1; 1/Vmax (reciprocal maximum velocity) (yeast α-glycosidase [6]; α-glycosidase, treatment IC40 0.06 μg): 29.00 10^3 (µM/min)^−1; 1/Vmax (reciprocal maximum velocity) (yeast α-glycosidase [6]; α-glycosidase, treatment IC60 0.08 μg): 29.29 10^3 (µM/min)^−1; Ki (dissociation constant) (α-amylase; Dixon plot, mean ± SE): 0.75 mg; Mode of Inhibition (α-amylase; Lineweaver–Burk plot): competitive inhibition; IC20 (α-amylase; inhibitory concentration used in kinetics): 80 µM; 1/Vmax (reciprocal maximum velocity) (α-amylase; treatment IC20 0.08 μg): 13.01 10^3 (µM/min)^−1; 1/Vmax (reciprocal maximum velocity) (α-amylase; treatment IC40 0.16 μg): 13.90 10^3 (µM/min)^−1; 1/Vmax (reciprocal maximum velocity) (α-amylase; treatment IC60 0.25 μg): 13.15 10^3 (µM/min)^−1 |
| N#Cc1c(-c2ccc(Cl)c(Cl)c2O)cc(N2C(=O)c3ccccc3C2=O)[nH]c1=O [8d, 4-(3,4-Dichloro-2-hydroxyphenyl)-6-(1,3-dioxoisoindolin-2-yl)-2-oxo-1,2-dihydropyridine-3-carbonitrile] | 9990 ± 1890 µM | 233 to 235 °C | 5050 ± 2220 µM | 2220 ± 110 µM | 5000 ± 3000 µM | 5220 ± 850 µM | – |
| N#Cc1c(-c2ccc([N+](=O)[O-])cc2)nn(C(=O)COc2cccc3cccnc23)c1N [4a, 5-Amino-3-(4-nitrophenyl)-1-(2-(quinolin-8-yloxy)acetyl)-1H-pyrazole-4-carbonitrile] | 1300 ± 1000 µM | 157 to 159 °C | 1500 ± 770 µM | 240 ± 50 µM | 720 ± 510 µM | 1110 ± 270 µM | – |
| NNC(=O)COc1cccc2cccnc12 [compound 1, 2-(Quinolin-8-yloxy)acetohydrazide] | 4500 ± 1140 µM | 137 to 139 °C | 4650 ± 2250 µM | – | 900 ± 1040 µM | 4500 ± 1110 µM | IC50 (yeast α-glycosidase [3]; mean ± SE, triplicate, read-out: IC50 α-Glycosidase): 500 ± 660 µM |
| N#Cc1c(-c2ccccc2O)nn(C(=O)COc2cccc3cccnc23)c1N [4c, 5-Amino-3-(2-hydroxyphenyl)-1-(2-(quinolin-8-yloxy)acetyl)-1H-pyrazole-4-carbonitrile] | 7860 ± 550 µM | 157 to 159 °C | 4550 ± 1570 µM | 1110 ± 740 µM | 1600 ± 770 µM | 5950 ± 1050 µM | – |
| CC(=NNC(=O)COc1cccc2cccnc12)c1ccc(N2C(=O)c3ccccc3C2=O)cc1 [compound 3, N’-(1-(4-(1,3-Dioxoisoindolin-2-yl)phenyl)ethylidene)-2-(quinolin-8-yloxy)acetohydrazide] | 1350 ± 1100 µM | 211 to 213 °C | 1600 ± 1020 µM | 470 ± 350 µM | 910 ± 1550 µM | 1100 ± 550 µM | – |
| N#Cc1c(-c2ccccc2)cc(N2C(=O)c3ccccc3C2=O)nc1N [compound 7a, 2-Amino-6-(1,3-dioxoisoindolin-2-yl)-4-phenylnicotinonitrile] | 2250 ± 220 µM | 167 to 169 °C | 1990 ± 90 µM | 1780 ± 60 µM | 3500 ± 1000 µM | 2250 ± 660 µM | – |
| S=C1N=NC(COc2cccc3cccnc23)=N1 [compound 6, 5-((Quinolin-8-yloxy)methyl)-3H-1,2,4-triazole-3-thione] | 8010 ± 330 µM | 187 to 189 °C | 3330 ± 860 µM | 1500 ± 2000 µM | 3650 ± 2470 µM | 6100 ± 1540 µM | – |
| N#Cc1c(-c2ccccc2O)cc(N2C(=O)c3ccccc3C2=O)nc1N [compound 7c, 2-Amino-6-(1,3-dioxoisoindolin-2-yl)-4-(2-hydroxyphenyl)nicotinonitrile] | 1230 ± 480 µM | 160 to 162 °C | 1000 ± 850 µM | 110 ± 40 µM | 260 ± 320 µM | 1000 µM | – |
| COc1ccc(O)c(C(C)(C)C)c1 [BHA, Butylated hydroxyanisole, reference compound] | 640 ± 310 µM | – | 800 ± 320 µM | – | – | 950 ± 170 µM | – |
| N#Cc1c(-c2ccc([N+](=O)[O-])cc2)cc(N2C(=O)c3ccccc3C2=O)nc1N [7b, 2-Amino-6-(1,3-dioxoisoindolin-2-yl)-4-(4-nitrophenyl)nicotinonitrile] | 2600 ± 770 µM | 153 to 155 °C | 2000 ± 150 µM | 1050 ± 880 µM | 1500 ± 1500 µM | 2300 ± 1990 µM | – |
